Reference: publication PMC3700763, “First human dose-escalation study with remogliflozin etabonate, a selective inhibitor of the sodium-glucose transporter 2 (SGLT2), in healthy subjects and in subjects with type 2 diabetes mellitus” (BMC Pharmacology & Toxicology, 2013)
Marks after values point to notes of the source that are not given here.

Key:
[1] = rats; cited from earlier work
[2] = Plasma glucose, healthy subjects; assay type: in vivo, human; settings: mean, very similar between placebo and remogliflozin etabonate periods
Method: Blood samples for glucose were taken at 0 (pre-dose), and 1, 2, 4, 8 and 12 h after dosing in each treatment period (Part A). For Part B, blood samples for glucose, insulin and GLP-1 were taken at check-in on day -2, and at 0 h (pre-dose), and 0.5, 1, 1.5, 2, 4 h (prior to lunch), 4.5, 5, 6, 8, 10, 12 and 24 h after dosing on day 1 of each treatment period.
For glucose, plasma was analyzed using a YSI 2300 Glucose Analyzer (Yellow Springs International Life Sciences, Yellow Springs, OH, USA). For insulin, plasma was rapidly prepared and frozen at -70°C until analyzed by LabCorp (San Diego, CA, USA) using a chemiluminescent immunometric assay method (Siemen’s Immulite 2000 analyzer with Immulite Insulin Kit L2KIN2).

[3] = 24-h urine electrolyte excretion, healthy subjects; assay type: in vivo, human; settings: for Urinary chloride excretion / Urinary potassium excretion / Urinary sodium excretion: 24-h, healthy subjects, mean (SD)
Method: Urine samples were collected at pre-dose, and over a series of intervals (0–2, 2–4, 4–6, 6–8, 8–12 and 12–24 h post-dose) for the analysis of creatinine, glucose and electrolytes (Na, K and Cl). All fluid intake was recorded, as well as urine volume, over the 24 hours before and after dosing in each treatment period. Urine was tested for protein on the first morning void of day -1 and 24 h after dosing.

CCOC(=O)OC[C@H]1O[C@@H](Oc2nn(C(C)C)c(C)c2Cc2ccc(OC(C)C)cc2)[C@H](O)[C@@H](O)[C@@H]1O [Remogliflozin etabonate, remogliflozin etabonate]
Urinary glucose excretion [1]: concentration-dependent increase | Plasma glucose AUC 0–4 h [2]: approximately 18 mmol•h/L | Plasma glucose AUC 0–12 h [2]: 55 to 59 mmol·h/L | Urinary chloride excretion ([3]; 20 mg single dose): 136 (56.6) mmol | Urinary potassium excretion ([3]; 20 mg single dose): 66.6 (27.7) mmol | Urinary sodium excretion ([3]; 20 mg single dose): 148 (64.0) mmol | Urinary chloride excretion ([3]; 50 mg single dose, n = 7): 189 (51.4)^b mmol | Urinary potassium excretion ([3]; 50 mg single dose, n = 7): 75.2 (21.3)^b mmol | Urinary sodium excretion ([3]; 50 mg single dose, n = 7): 212 (67.6)^b mmol | Urinary chloride excretion ([3]; 150 mg single dose, n = 7): 179 (49.6)^b mmol | Urinary potassium excretion ([3]; 150 mg single dose, n = 7): 59.7 (20.3)^b mmol | Urinary sodium excretion ([3]; 150 mg single dose, n = 7): 176 (38.7)^b mmol | Urinary chloride excretion ([3]; 500 mg single dose): 126 (55) mmol | Urinary potassium excretion ([3]; 500 mg single dose): 55.8 (17.2) mmol | Urinary sodium excretion ([3]; 500 mg single dose): 143 (55.0) mmol | Urinary chloride excretion ([3]; 1000 mg single dose): 201 (61.5) mmol | Urinary potassium excretion ([3]; 1000 mg single dose): 89.1 (24.7) mmol | Urinary sodium excretion ([3]; 1000 mg single dose): 207 (62.9) mmol | Effect on clinical laboratory results, urine electrolytes, vital signs or ECGs ([3]; all subjects): no obvious patterns suggesting an effect
